Experimental data reported in ChEMBL document CHEMBL3272117, “Synthesis of 1-(4-thio-beta-D-ribofuranosyl)-1,2,4-triazole-3-carboxamide” (J Med Chem, 1976).
Calls of active or inactive are those of the source. The rule behind the calls is not given here.

What was measured:
[1] = test system: Human alphaherpesvirus 1; experiment: Antiviral activity against Herpes simplex virus type 1 infected in human KB cells; format: functional, organism-based
[2] = test system: Human respirovirus 3; experiment: Antiviral activity against Parainfluenza virus type 3 infected in human KB cells; format: functional, organism-based
[3] = test system: KB; experiment: Antiviral activity against Rhinovirus type 13 infected in human KB cells; format: functional, cell-based; settings: Human rhinovirus A13

Row | Structure (SMILES) | Activity [1] | Activity [2] | Activity [3]
1 | NC(=O)c1ncn([C@@H]2O[C@H](CO)[C@@H](O)[C@H]2O)n1 | Active | Active | Active
2 | NC(=O)c1ncn([C@@H]2S[C@H](CO)[C@@H](O)[C@H]2O)n1 | Active |  | 
